Test results reported in PMC5290327, “SC83288 is a clinical development candidate for the treatment of severe malaria” (Nature Communications, 2017).

Tests used:
Experiment in all cases: KINOMEscan
FLT3(ITD) = type: binding, human; details: 10 μM
Description: The KINOMEscan was carried out by Ambit (San Diego, USA) according to a previously established protocol. The experiment was based on a competition binding assay that quantitatively measures the ability of a compound to compete with an immobilized, active-site directed ligand. The assay is performed by combining three components: DNA-tagged kinase; immobilized ligand; and a test compound. The ability of the test compound to compete with the immobilized ligand is measured via quantitative PCR of the DNA tag.
For most assays, kinase-tagged T7 phage strains were grown in parallel in 24-well blocks in an Escherichia coli host derived from the BL21 strain. E. coli were grown to log-phase and infected with T7 phage from a frozen stock and incubated with shaking at 32 °C until lysis (90–150 min). The lysates were centrifuged (6,000g) and filtered (0.2 μm) to remove cell debris. The remaining kinases were produced in HEK-293 cells (Sigma Aldrich, catalogue number: 85120602) and subsequently tagged with DNA for quantitative PCR detection. […] The liganded beads were blocked with excess biotin and washed with blocking buffer (SeaBlock (Pierce), 1% bovine serum albumin, 0.05% Tween 20 and 1 mM dithiothreitol) to remove unbound ligand and to reduce non-specific phage binding. […] The kinase concentration in the eluates was measured by quantitative PCR.

SNARK = target: T1, SNARK (Homo sapiens, UniProt Q9H093); type: binding; details: read-out: Remaining enzyme activity
T1 construct: purchased Ambit (DiscoverX) KINOMEscan; Cerep
Summary of the method: (§1)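 Immobilized ligand beads, biotin-blocked and washed in SeaBlock buffer with BSA, Tween 20 and DTT, are incubated with DNA-tagged kinase and 10 μM SC81458. Compound occupying the active site lowers bead-bound kinase, which is quantified by qPCR of the tag.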

TGFBR1 = target: T2, TGFBR1 (Homo sapiens, UniProt P36897); type: binding; details: read-out: Remaining enzyme activity
T2 construct: purchased Ambit (DiscoverX) KINOMEscan; Cerep
Summary of the method: as §1

ERBB4 = target: T3, ERBB4 (Homo sapiens, UniProt Q15303); type: binding; details: read-out: Remaining enzyme activity
T3 construct: purchased Ambit (DiscoverX) KINOMEscan; Cerep
Summary of the method: as §1

MRCKB = target: T4, MRCKB (Homo sapiens, UniProt Q9Y5S2); type: binding; details: read-out: Remaining enzyme activity
T4 construct: purchased Ambit (DiscoverX) KINOMEscan; Cerep
Summary of the method: as §1

[1] = target: T5, RPS6KA5(Kin.Dom.2-C-term) (Homo sapiens, UniProt O75582); type: binding; details: read-out: Remaining enzyme activity
T5 construct: RPS6KA5(Kin.Dom.2-C-term); purchased Ambit (DiscoverX) KINOMEscan; Cerep
Summary of the method: as §1

CDK9 = target: T6, CDK9 (Homo sapiens, UniProt P50750); type: binding; details: read-out: Remaining enzyme activity
T6 construct: purchased Ambit (DiscoverX) KINOMEscan; Cerep
Summary of the method: as §1

RAF1 = target: T7, RAF1 (Homo sapiens, UniProt P04049); type: binding; details: read-out: Remaining enzyme activity
T7 construct: purchased Ambit (DiscoverX) KINOMEscan; Cerep
Summary of the method: as §1

RRET(V804L) = target: T8, RRET(V804L) (Homo sapiens, UniProt P07949, V804L); type: binding; details: read-out: Remaining enzyme activity
T8 construct: purchased Ambit (DiscoverX) KINOMEscan; Cerep
Summary of the method: as §1

ANKK1 = target: T9, ANKK1 (Homo sapiens, UniProt Q8NFD2); type: binding; details: read-out: Remaining enzyme activity
T9 construct: purchased Ambit (DiscoverX) KINOMEscan; Cerep
Summary of the method: as §1

ACVR1b = target: T10, ACVR1b (Homo sapiens, UniProt P36896); type: binding; details: read-out: Remaining enzyme activity
T10 construct: purchased Ambit (DiscoverX) KINOMEscan; Cerep
Summary of the method: as §1

IRAK1 = target: T11, IRAK1 (Homo sapiens, UniProt P51617); type: binding; details: read-out: Remaining enzyme activity
T11 construct: purchased Ambit (DiscoverX) KINOMEscan; Cerep
Summary of the method: as §1

PCTk3 = target: T12, PCTk3 (Homo sapiens, UniProt Q07002); type: binding; details: read-out: Remaining enzyme activity
T12 construct: purchased Ambit (DiscoverX) KINOMEscan; Cerep
Summary of the method: as §1

BLK = target: T13, BLK (Homo sapiens, UniProt P51451); type: binding; details: read-out: Remaining enzyme activity
T13 construct: purchased Ambit (DiscoverX) KINOMEscan; Cerep
Summary of the method: as §1

CAMK1g = target: T14, CAMK1g (Homo sapiens, UniProt Q96NX5); type: binding; details: read-out: Remaining enzyme activity
T14 construct: purchased Ambit (DiscoverX) KINOMEscan; Cerep
Summary of the method: as §1

SRPK2 = target: T15, SRPK2 (Homo sapiens, UniProt P78362); type: binding; details: read-out: Remaining enzyme activity
T15 construct: purchased Ambit (DiscoverX) KINOMEscan; Cerep
Summary of the method: as §1

[2] = target: T16, RPS6KA1(Kin.Dom.2-C-term) (Homo sapiens, UniProt Q15418); type: binding; details: read-out: Remaining enzyme activity
T16 construct: RPS6KA1(Kin.Dom.2-C-term); purchased Ambit (DiscoverX) KINOMEscan; Cerep
Summary of the method: as §1

NEK9 = target: T17, NEK9 (Homo sapiens, UniProt Q8TD19); type: binding; details: read-out: Remaining enzyme activity
T17 construct: purchased Ambit (DiscoverX) KINOMEscan; Cerep
Summary of the method: as §1

PCTK1 = target: T18, PCTK1 (Homo sapiens, UniProt Q00536); type: binding; details: read-out: Remaining enzyme activity
T18 construct: purchased Ambit (DiscoverX) KINOMEscan; Cerep
Summary of the method: as §1

BMPR1b = target: T19, BMPR1b (Homo sapiens, UniProt O00238); type: binding; details: read-out: Remaining enzyme activity
T19 construct: purchased Ambit (DiscoverX) KINOMEscan; Cerep
Summary of the method: as §1

EPHB2 = target: T20, EPHB2 (Homo sapiens, UniProt P29323); type: binding; details: read-out: Remaining enzyme activity
T20 construct: purchased Ambit (DiscoverX) KINOMEscan; Cerep
Summary of the method: as §1

FGFR4 = target: T21, FGFR4 (Homo sapiens, UniProt P22455); type: binding; details: read-out: Remaining enzyme activity
T21 construct: purchased Ambit (DiscoverX) KINOMEscan; Cerep
Summary of the method: as §1

CDC2L1 = target: T22, CDC2L1 (Homo sapiens, UniProt P21127); type: binding; details: read-out: Remaining enzyme activity
T22 construct: purchased Ambit (DiscoverX) KINOMEscan; Cerep
Summary of the method: as §1

MKNK1 = target: T23, MKNK1 (Homo sapiens, UniProt Q9BUB5); type: binding; details: read-out: Remaining enzyme activity
T23 construct: purchased Ambit (DiscoverX) KINOMEscan; Cerep
Summary of the method: as §1

BRSK2 = target: T24, BRSK2 (Homo sapiens, UniProt Q8IWQ3); type: binding; details: read-out: Remaining enzyme activity
T24 construct: purchased Ambit (DiscoverX) KINOMEscan; Cerep
Summary of the method: as §1

KIT(L576P) = target: T25, KIT(L576P) (Homo sapiens, UniProt P10721, L576P); type: binding; details: read-out: Remaining enzyme activity
T25 construct: purchased Ambit (DiscoverX) KINOMEscan; Cerep
Summary of the method: as §1

MLK3 = target: T26, MLK3 (Homo sapiens, UniProt Q16584); type: binding; details: read-out: Remaining enzyme activity
T26 construct: purchased Ambit (DiscoverX) KINOMEscan; Cerep
Summary of the method: as §1

FLT3(N841I) = target: T27, FLT3(N841I) (Homo sapiens, UniProt P36888, N841I); type: binding; details: read-out: Remaining enzyme activity
T27 construct: purchased Ambit (DiscoverX) KINOMEscan; Cerep
Summary of the method: as §1

AMPK-alpha1 = target: T28, AMPK-alpha1 (Homo sapiens, UniProt Q13131); type: binding; details: read-out: Remaining enzyme activity
T28 construct: purchased Ambit (DiscoverX) KINOMEscan; Cerep
Summary of the method: as §1

T14 sequence (Q96NX5 whole entry): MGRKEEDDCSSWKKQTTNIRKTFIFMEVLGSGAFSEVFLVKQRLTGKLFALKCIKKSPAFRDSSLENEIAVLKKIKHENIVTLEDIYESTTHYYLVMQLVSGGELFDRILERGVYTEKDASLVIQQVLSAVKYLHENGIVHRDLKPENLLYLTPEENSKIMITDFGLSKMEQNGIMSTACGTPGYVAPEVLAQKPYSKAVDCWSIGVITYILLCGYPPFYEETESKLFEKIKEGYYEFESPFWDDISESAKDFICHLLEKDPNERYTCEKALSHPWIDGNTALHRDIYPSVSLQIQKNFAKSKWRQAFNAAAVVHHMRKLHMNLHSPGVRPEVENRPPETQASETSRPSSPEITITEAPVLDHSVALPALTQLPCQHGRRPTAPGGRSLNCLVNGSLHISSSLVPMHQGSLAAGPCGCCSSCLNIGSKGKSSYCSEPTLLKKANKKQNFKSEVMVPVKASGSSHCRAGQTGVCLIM
T3 sequence (Q15303 26-1308): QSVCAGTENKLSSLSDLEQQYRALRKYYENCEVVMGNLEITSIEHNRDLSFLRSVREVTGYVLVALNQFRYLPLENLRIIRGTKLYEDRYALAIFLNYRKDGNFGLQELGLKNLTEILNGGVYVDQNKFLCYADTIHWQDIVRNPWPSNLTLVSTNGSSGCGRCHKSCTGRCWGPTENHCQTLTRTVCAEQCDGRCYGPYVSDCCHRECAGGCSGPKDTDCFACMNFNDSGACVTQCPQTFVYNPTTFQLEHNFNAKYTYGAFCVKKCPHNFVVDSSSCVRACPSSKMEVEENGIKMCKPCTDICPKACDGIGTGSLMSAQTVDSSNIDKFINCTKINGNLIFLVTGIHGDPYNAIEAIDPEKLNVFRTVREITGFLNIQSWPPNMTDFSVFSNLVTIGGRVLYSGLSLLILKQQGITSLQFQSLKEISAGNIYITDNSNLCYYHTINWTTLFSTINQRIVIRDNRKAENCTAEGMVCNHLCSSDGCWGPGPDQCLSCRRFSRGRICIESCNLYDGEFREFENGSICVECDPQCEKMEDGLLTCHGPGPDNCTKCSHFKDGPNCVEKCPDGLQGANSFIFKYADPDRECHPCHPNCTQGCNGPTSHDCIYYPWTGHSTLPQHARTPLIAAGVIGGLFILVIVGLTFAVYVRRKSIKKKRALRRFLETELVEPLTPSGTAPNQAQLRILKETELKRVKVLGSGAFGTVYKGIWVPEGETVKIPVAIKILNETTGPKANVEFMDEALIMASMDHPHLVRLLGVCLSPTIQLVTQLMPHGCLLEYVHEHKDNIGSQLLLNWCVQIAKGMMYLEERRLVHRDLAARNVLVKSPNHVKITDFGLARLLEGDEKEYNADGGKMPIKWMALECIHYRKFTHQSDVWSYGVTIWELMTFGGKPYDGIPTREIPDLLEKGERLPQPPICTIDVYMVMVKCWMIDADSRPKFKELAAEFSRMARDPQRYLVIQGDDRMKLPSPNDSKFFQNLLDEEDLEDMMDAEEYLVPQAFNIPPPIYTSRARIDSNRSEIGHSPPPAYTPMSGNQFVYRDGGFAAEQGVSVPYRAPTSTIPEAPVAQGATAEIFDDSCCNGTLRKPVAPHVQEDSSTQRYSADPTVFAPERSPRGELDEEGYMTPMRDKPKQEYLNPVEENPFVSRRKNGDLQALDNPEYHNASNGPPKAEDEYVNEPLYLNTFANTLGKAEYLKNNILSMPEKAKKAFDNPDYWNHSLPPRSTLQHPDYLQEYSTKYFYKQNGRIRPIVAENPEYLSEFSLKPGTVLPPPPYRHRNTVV
T2 sequence (P36897 34-503): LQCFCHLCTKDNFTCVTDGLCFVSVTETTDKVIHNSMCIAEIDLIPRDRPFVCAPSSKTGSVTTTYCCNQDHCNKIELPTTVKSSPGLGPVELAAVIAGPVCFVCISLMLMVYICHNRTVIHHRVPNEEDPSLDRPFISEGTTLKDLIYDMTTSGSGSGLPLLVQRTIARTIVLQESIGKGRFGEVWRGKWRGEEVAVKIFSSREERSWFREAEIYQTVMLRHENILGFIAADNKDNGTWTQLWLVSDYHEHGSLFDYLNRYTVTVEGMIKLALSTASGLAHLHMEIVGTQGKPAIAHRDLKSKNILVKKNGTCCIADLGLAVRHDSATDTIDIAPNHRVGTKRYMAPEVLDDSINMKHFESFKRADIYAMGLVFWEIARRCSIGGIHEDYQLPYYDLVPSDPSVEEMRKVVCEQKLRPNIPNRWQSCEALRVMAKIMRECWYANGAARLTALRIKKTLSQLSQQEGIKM
T6 sequence (P50750 whole entry): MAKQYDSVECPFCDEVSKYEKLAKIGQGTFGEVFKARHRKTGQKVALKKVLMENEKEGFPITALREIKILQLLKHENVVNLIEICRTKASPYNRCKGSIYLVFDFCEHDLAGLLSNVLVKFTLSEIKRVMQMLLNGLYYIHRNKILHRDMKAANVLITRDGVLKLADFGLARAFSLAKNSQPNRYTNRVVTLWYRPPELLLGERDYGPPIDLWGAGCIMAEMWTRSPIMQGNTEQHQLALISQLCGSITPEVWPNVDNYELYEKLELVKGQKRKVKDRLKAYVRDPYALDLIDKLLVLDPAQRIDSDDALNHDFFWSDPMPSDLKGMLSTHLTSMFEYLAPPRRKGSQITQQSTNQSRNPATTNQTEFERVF
T17 sequence (Q8TD19 whole entry): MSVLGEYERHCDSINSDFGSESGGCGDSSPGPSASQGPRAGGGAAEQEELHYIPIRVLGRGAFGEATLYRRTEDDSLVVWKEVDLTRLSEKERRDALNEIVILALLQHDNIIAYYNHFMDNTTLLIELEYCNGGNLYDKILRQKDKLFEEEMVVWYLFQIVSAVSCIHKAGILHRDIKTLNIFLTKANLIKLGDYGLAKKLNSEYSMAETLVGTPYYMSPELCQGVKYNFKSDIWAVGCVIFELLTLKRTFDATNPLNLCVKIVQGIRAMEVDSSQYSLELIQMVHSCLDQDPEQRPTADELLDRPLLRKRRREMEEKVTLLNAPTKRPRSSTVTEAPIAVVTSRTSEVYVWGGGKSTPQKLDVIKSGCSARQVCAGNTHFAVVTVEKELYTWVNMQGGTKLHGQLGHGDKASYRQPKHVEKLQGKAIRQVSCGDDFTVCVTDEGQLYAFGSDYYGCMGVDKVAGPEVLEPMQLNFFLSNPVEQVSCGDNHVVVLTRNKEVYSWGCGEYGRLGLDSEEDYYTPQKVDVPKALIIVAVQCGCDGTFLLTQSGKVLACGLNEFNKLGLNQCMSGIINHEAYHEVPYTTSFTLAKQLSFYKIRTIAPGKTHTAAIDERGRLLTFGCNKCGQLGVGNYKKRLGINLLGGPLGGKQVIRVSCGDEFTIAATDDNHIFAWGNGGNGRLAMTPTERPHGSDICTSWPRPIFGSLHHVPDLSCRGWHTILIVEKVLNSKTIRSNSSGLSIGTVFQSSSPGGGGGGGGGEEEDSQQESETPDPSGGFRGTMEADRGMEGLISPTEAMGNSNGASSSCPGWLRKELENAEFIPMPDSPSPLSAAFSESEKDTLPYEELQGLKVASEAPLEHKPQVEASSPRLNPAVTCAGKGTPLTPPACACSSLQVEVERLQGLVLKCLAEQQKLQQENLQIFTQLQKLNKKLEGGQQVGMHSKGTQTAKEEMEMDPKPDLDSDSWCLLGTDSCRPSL
T5 sequence (O75582 426-687 limits assumed): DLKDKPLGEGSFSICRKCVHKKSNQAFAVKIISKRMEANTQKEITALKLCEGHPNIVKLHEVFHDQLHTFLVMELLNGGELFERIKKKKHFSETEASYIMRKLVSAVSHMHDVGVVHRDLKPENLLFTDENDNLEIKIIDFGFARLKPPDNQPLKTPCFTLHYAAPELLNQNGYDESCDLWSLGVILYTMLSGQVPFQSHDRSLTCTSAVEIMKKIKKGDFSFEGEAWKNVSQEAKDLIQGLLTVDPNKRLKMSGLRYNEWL
T18 sequence (Q00536 whole entry): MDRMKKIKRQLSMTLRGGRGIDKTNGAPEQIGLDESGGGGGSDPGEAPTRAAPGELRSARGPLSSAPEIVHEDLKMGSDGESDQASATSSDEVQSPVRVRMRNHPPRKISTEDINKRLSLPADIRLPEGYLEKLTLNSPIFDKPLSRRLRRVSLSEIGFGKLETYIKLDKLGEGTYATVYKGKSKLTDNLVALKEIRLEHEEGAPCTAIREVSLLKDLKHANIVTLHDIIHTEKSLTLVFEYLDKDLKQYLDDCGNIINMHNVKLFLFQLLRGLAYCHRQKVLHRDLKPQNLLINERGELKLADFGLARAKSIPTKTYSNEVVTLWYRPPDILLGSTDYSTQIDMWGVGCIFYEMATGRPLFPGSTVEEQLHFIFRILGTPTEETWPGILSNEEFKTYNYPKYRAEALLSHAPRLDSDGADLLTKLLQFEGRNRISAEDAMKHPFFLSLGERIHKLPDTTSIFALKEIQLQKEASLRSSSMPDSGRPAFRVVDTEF
T16 sequence (Q15418 418-675 limits assumed): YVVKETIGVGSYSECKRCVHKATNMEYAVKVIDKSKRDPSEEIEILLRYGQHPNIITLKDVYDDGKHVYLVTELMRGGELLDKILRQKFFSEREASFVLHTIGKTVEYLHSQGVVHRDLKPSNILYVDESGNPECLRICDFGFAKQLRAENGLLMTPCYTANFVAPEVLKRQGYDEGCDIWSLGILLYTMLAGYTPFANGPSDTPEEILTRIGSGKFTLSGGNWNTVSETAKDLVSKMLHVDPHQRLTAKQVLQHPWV

**Q.** `CCCCN1CCN(C(=N)c2cccc(NC(=O)Nc3ccc(S(=O)(=O)NCc4ccc(S(N)(=O)=O)cc4)cc3)c2)CC1` [SC81458, 4-(3-(3-((4-butylpiperazin-1-yl)(imino)methyl)phenyl)ureido)-N-(4-sulfamoylbenzyl) benzenesulfonamide] was tested. Which Remaining enzyme activity (FLT3(ITD)) did it give?
**A.** The Remaining enzyme activity was 85%.

**Q.** What about the remaining binding at 10 µM (SNARK) of the same compound?
**A.** The remaining binding at 10 µM was 100%.

**Q.** What about the remaining binding at 10 µM (TGFBR1) of the same compound?
**A.** The remaining binding at 10 µM was 100%.

**Q.** What about the remaining binding at 10 µM (ERBB4) of the same compound?
**A.** Its remaining binding at 10 µM is 100%.

**Q.** What about the remaining binding at 10 µM (MRCKB) of the same compound?
**A.** The remaining binding at 10 µM was 99%.

**Q.** What about the remaining binding at 10 µM [1] of the same compound?
**A.** Its remaining binding at 10 µM is 100%.

**Q.** What about the remaining binding at 10 µM (CDK9) of the same compound?
**A.** The remaining binding at 10 µM was 100%.

**Q.** And the remaining binding at 10 µM (RAF1)?
**A.** Its remaining binding at 10 µM is 100%.

**Q.** And the remaining binding at 10 µM (RRET(V804L))?
**A.** The remaining binding at 10 µM was 100%.

**Q.** And the remaining binding at 10 µM (ANKK1)?
**A.** The remaining binding at 10 µM was 99%.

**Q.** What about the remaining binding at 10 µM (ACVR1b) of the same compound?
**A.** The remaining binding at 10 µM was 100%.

**Q.** And the remaining binding at 10 µM (IRAK1)?
**A.** Its remaining binding at 10 µM is 95%.

**Q.** And the remaining binding at 10 µM (PCTk3)?
**A.** Its remaining binding at 10 µM is 98%.

**Q.** And the remaining binding at 10 µM (BLK)?
**A.** Its remaining binding at 10 µM is 100%.

**Q.** What about the remaining binding at 10 µM (CAMK1g) of the same compound?
**A.** The remaining binding at 10 µM was 98%.

**Q.** And the remaining binding at 10 µM (SRPK2)?
**A.** Its remaining binding at 10 µM is 93%.

**Q.** What about the remaining binding at 10 µM [2] of the same compound?
**A.** Its remaining binding at 10 µM is 100%.

**Q.** What about the remaining binding at 10 µM (NEK9) of the same compound?
**A.** The remaining binding at 10 µM was 100%.

**Q.** What about the remaining binding at 10 µM (PCTK1) of the same compound?
**A.** The remaining binding at 10 µM was 92%.

**Q.** And the remaining binding at 10 µM (BMPR1b)?
**A.** The remaining binding at 10 µM was 85%.

**Q.** And the remaining binding at 10 µM (EPHB2)?
**A.** Its remaining binding at 10 µM is 100%.

**Q.** And the remaining binding at 10 µM (FGFR4)?
**A.** The remaining binding at 10 µM was 100%.

**Q.** And the remaining binding at 10 µM (CDC2L1)?
**A.** The remaining binding at 10 µM was 100%.

**Q.** What about the remaining binding at 10 µM (MKNK1) of the same compound?
**A.** The remaining binding at 10 µM was 71%.

**Q.** And the remaining binding at 10 µM (BRSK2)?
**A.** Its remaining binding at 10 µM is 100%.

**Q.** What about the remaining binding at 10 µM (KIT(L576P)) of the same compound?
**A.** Its remaining binding at 10 µM is 66%.

**Q.** And the remaining binding at 10 µM (MLK3)?
**A.** The remaining binding at 10 µM was 100%.

**Q.** And the remaining binding at 10 µM (FLT3(N841I))?
**A.** Its remaining binding at 10 µM is 100%.

**Q.** What about the remaining binding at 10 µM (AMPK-alpha1) of the same compound?
**A.** Its remaining binding at 10 µM is 100%.
